The source of these data is patent US20060093658A1 (priority 2004, published 2006).

Series [1] can be described thus: in vivo. The settings on record: hairless, guinea pig. As to the method: The retainer ring containing the patch was loaded onto an impact applicator, and the patch was applied to the prepared skin site with an impact energy of 0.26 J, delivered in less than 10 ms.
Efficiency of delivery was calculated as the percentage delivered of the total dose coated onto the array. For mass balance calculations, drug residuals left on the skin and on the array were also taken into account.

A further series in a line: clinical. The following applies: both, human, in vivo, iv. As to the method: (§1) Methods: This was a 2-part study in healthy human volunteers (18-45 years). […] All treatments were administered 30 minutes after a subcutaneous injection of low-molecular weight heparin to counteract the increase in clotting factors in the healthy volunteer population. […] Topical effects were also examined. Pain upon patch application was scored and compared to subcutaneous saline injection with a 27-gauge needle. […] Bleeding assessment (visual and photographic) were measured 2 min post-system removal. […] Routine safely assessments were also included, including the following: solicitation of Adverse Events (AEs), measurement of vital signs, measurement of serum sodium concentration and platelets, and measurement of urine output, specific gravity and osmolality.
Data analysis included a review of PK parameters (Cmax, Tmax, elimination rate constant, apparent half-life, and AUCinf) and were estimated using standard methodology. […] The intra-individual (sigma) and inter-individual (CV %) variabilities were estimated using additive+proportional and log normal distributions, respectively. Model performance between hierarchical models was assessed both numerically (Objective Function, OBJ) and graphically (comparison of the predicted and observed data). A reduction of^3 6.7 units in OBJ per additional structural model parameter was considered significant at p<0.01 on the x^2 distribution.

Series [2] can be described thus: in vivo. The settings on record: hairless, guinea pig. This is another data set of the same source.
For series [3] the following is noted: cited from earlier work.
The nature of series [4]: skin response / tolerability of microneedle patches. It is filed as in vivo. The text has this: Following system removal, skin sites were visually assessed for signs of erythema, edema, bleeding, and infection until the sites returned to normal.
Series [5] concerns plasma coagulation Factor VIII. Description: pharmacodynamic effect on plasma coagulation Factor VIII levels (one-stage clotting assay). It is filed as in vivo, human. As to the method: as §1
[6] abbreviates: desmopressin-coated microneedle patches.

On to `NC(=O)CC[C@@H]1NC(=O)[C@H](Cc2ccccc2)NC(=O)[C@H](Cc2ccc(O)cc2)NC(=O)CCSSC[C@@H](C(=O)N2CCC[C@H]2C(=O)N[C@H](CCCN=C(N)N)C(=O)NCC(N)=O)NC(=O)[C@H](CC(N)=O)NC1=O` [desmopressin], for which the dose excreted in “in vivo [1]” (iv, 20 ug) turned out to be 71%. This compound came in with a bioavailability in “in vivo [1]” (outbred euthymic (ibm:GOHI-hr and IAF:HA-HO-hr)) of 85%. Also, the time of peak concentration (Tmax) was 0.26 h in “clinical”; 0.25 h in “clinical” (15 ug, time of peak concentration); 0.5 h in “clinical” (Tmax); 1 h in the series “in vivo [2]” (outbred euthymic (ibm:GOHI-hr and IAF:HA-HO-hr), 82 ug). In the series “clinical”, this compound registered a t1/2 of 3.8 ± 1.25 h. Also, the values for the half-life in the series “clinical” (mean half-life) and in the series “clinical” (t1/2) were 3.1 to 3.8 h and 3.1 ± 0.38 h, respectively. For the same compound, the area under the curve (AUC) in “in vivo [2]” (82 ug) amounted to 76 ng·h/mL; in “in vivo [2]” (iv, 11 ug), 50.5 ng·h/mL. The same compound registered a peak concentration (Cmax) in “in vivo [2]” (82 ug) of 49 ng/mL. For the same compound, the nasal bioavailability in series [3] (human, in vivo, inhaled or intranasal) was 3.4%. The oral bioavailability in series [3] (oral administration) is reported as 0.1%. The “tolerability of the desmopressin-coated microneedle patches” value in series [4] (5 or 15 min wear) was “well tolerated”. Besides, the “erythema following removal of the systems” value in series [4] (setting [6]) is reported as “only mild erythema”. The “signs of edema, bleeding, or infection” value in series [4] (setting [6]) was “no signs of edema, bleeding, or infection”. Also, in series [4] (setting [6]), the “time to resolution of erythema” value is reported as ≤ 24 h. Moreover, the “Factor VIII value” in series [5] (IV-15 ug) is 280 % of baseline value; in series [5] (IV-30 ug), 321 % of baseline value. In addition, in series [5] (desmopressin absorbed after MFLX / IV), the “pharmacological activity of absorbed desmopressin (factor VIII measurements)” value is recorded as “pharmacologically active”.

As usually defined, the bioavailability is the share of a dose that reaches the circulation, judged against a reference dose that is usually intravenous. The low end stands for little systemic uptake, the high end for much systemic uptake. As usually defined, the Tmax is the time at which the peak concentration occurs. The half-life is the time needed for the level to fall by half in the phase considered. A low value points to rapid decline. As a reminder, the AUC is concentration integrated over time. A higher AUC goes with high exposure. What is called Cmax is the maximum level reached in the sampled fluid or tissue.
